The results in this text go back to patent EP4741401A1, “BENZOTHIAZOIMIDAZOLYL COMPOUND AND USE THEREOF” (ER Stress Research Institute, Inc., priority 2023, dated 2025).

One assay relates to 293A cells. Nature of the assay: Cytoprotection under endoplasmic reticulum stress conditions (Tm-induced cell death). It is filed as cell-based. The conditions noted are these: compound concentration inhibiting Tm-induced cell death by 50%, Tm 0.2 µg/mL, reporter cells. As for the experimental part: The reporter cells same as those used in Example 1 were placed in each well of a 96-well assay plate and were treated with Tm at a final concentration of 0.2 µg/mL and the test compound. […]

Assay [1] has as its system endoplasmic reticulum stress response induced by Tm. Nature of the assay: Suppression of endoplasmic reticulum stress response (ERSE2-UPRE-AARE-EGFP reporter fluorescence). The assay is classed as cell-based. As to conditions: 293A reporter cells, incubated at 37°C overnight, read-out: Suppression rank of endoplasmic reticulum stress response. On the procedure:
A solution of the compound synthesized in "(1) Synthesis of benzothiazoimidazolyl compound" was appropriately diluted with a DMEM solution containing 10% fetal bovine serum (FBS), and the diluted solution was added to a 384-well assay plate at 10 µL/well. Next, 30 µL of a culture medium containing the reporter cells and 10 µL of the Tm solution were mixed, and the mixture was added to the 384-well assay plate at 40 µL/well such that the cell density was 18 × 10^3 cells/well, and the whole was incubated at 37°C overnight.
A multi-plate reader Citation 3 (Bio-Tek) was used to determine the EGFP fluorescence intensity (excitation wavelength: 485 nm, fluorescence wavelength: 528 nm) when the test compound was added. A smaller fluorescence intensity indicates more suppression of the increase in activity of the endoplasmic reticulum stress marker induced by Tm.
A "control" containing the Tm solution and, in place of the test compound solution, an equal volume of DMSO was subjected to the measurement of fluorescence intensity in a similar manner. In addition, a "background" containing a solution prepared in the same manner as for the Tm solution except that no Tm was added and containing, in place of the test compound solution, an equal volume of DMSO was subjected to the measurement of fluorescence intensity in a similar manner.
The fluorescence intensity was determined while the concentration of the test compound was varied, and the 50% effective concentration (IC50) of suppressing the endoplasmic reticulum stress response induced by Tm was calculated.

In the case of `CS(=O)(=O)c1ccc2c(c1)sc1nc(-c3ccc(C(F)(F)F)cc3)cn12` [IBT-31, 7-(methylsulfonyl)-2-(4-(trifluoromethyl)phenyl)benzo[d]imidazo[2,1-b]thiazole], the IC50 is 10 nM with 293A cells and ≤ 10 nM in assay [1].

On to `CS(=O)(=O)c1ccc2c(c1)sc1nc(-c3ccc(Cl)c(Cl)c3)cn12` [IBT-32, 2-(3,4-dichlorophenyl)-7-(methylsulfonyl)benzo[d]imidazo[2,1-b]thiazole], for which the IC50 was 20 nM in the assay with 293A cells and 10 to 100 nM in assay [1].

`COc1cccc(-c2cn3c(n2)sc2cc(S(C)(=O)=O)ccc23)c1` [IBT-33, 2-(3-methoxyphenyl)-7-(methylsulfonyl)benzo[d]imidazo[2,1-b]thiazole]: the IC50 in the assay on 293A cells was 70 nM; in assay [1], 10 to 100 nM.

Regarding `CS(=O)(=O)c1ccc2c(c1)sc1nc(-c3ccc(F)cc3)cn12` [IBT-34, 2-(4-fluorophenyl)-7-(methylsulfonyl)benzo[d]imidazo[2,1-b]thiazole], the IC50 is 80 nM with 293A cells and 10 to 100 nM in assay [1].

`CNC(=O)CCc1ccc2c(c1)sc1nc(-c3ccc(Cl)cc3)cn12` [IBT-35, 3-(2-(4-chlorophenyl)benzo[d]imidazo[2,1-b]thiazol-7-yl)-N-methylpropanamide]: the IC50 with 293A cells is 40 nM; in assay [1] it was 10 to 100 nM.

`COc1cc(-c2cn3c(n2)sc2cc(S(C)(=O)=O)ccc23)ccc1Cl` [IBT-36, 2-(4-chloro-3-methoxyphenyl)-7-(methylsulfonyl)benzo[d]imidazo[2,1-b]thiazole]: the IC50 in the assay on 293A cells was 10 nM; in assay [1], ≤ 10 nM.

For `CNC(=O)CCc1ccc2c(c1)sc1nc(-c3ccc(C(F)(F)F)cc3)cn12` [IBT-37, N-methyl-3-(2-(4-(trifluoromethyl)phenyl)benzo[d]imidazo[2,1-b]thiazol-7-yl)propanamide], the IC50 was 30 nM with 293A cells and 10 to 100 nM in assay [1].

`CNC(=O)CCCS(=O)(=O)c1ccc2c(c1)sc1nc(-c3ccc(C(F)(F)F)cc3)cn12` [IBT-38, N-methyl-4-((2-(4-(trifluoromethyl)phenyl)benzo[d]imidazo[2,1-b]thiazol-7-yl)sulfonyl)butanamide]: the IC50 with 293A cells was 90 nM; in assay [1], 10 to 100 nM.

For `CCN(CC)C(=O)CCc1ccc2c(c1)sc1nc(-c3ccc(C(F)(F)F)cc3)cn12` [IBT-39, N,N-diethyl-3-(2-(4-(trifluoromethyl)phenyl)benzo[d]imidazo[2,1-b]thiazol-7-yl)propanamide], the IC50 in the assay with 293A cells is 80 nM; in assay [1], 10 to 100 nM.

Take `FC(F)(F)c1ccc(-c2cn3c(n2)sc2ccccc23)cc1` [IBT-40, 2-(4-(trifluoromethyl)phenyl)benzo[d]imidazo[2,1-b]thiazole]: the IC50 in the assay with 293A cells was 100 nM; in assay [1] it was 10 to 100 nM.

For the molecule `C#CCOc1ccc(-c2cn3c(n2)sc2cc(S(C)(=O)=O)ccc23)cc1` [IBT-41, 7-(methylsulfonyl)-2-(4-(prop-2-yn-1-yloxy)phenyl)benzo[d]imidazo[2,1-b]thiazole 2,2,2-trifluoroacetate], the IC50 in the assay with 293A cells was 90 nM; in assay [1], 10 to 100 nM.

For `COc1ccc(-c2cn3c(n2)sc2cc(S(C)(=O)=O)ccc23)cc1` [IBT-43, 2-(4-methoxyphenyl)-7-(methylsulfonyl)benzo[d]imidazo[2,1-b] thiazole], the IC50 in the assay with 293A cells was 170 nM; in assay [1], 100 to 1000 nM.

In the case of `CS(=O)(=O)c1ccc2c(c1)sc1nc(-c3ccc(Cl)cc3Cl)cn12` [IBT-44, 2-(2,4-dichlorophenyl)-7-(methylsulfonyl)benzo[d]imidazo[2,1-b]thiazole], the IC50 is 450 nM with 293A cells and 100 to 1000 nM in assay [1].

Consider `CCOC(=O)c1ccc2c(c1)sc1nc(-c3ccc(Cl)cc3)cn12` [IBT-45, ethyl 2-(4-chlorophenyl)benzo[d]imidazo[2,1-b]thiazole-7-carboxylate], for which the results for the IC50 (in the assay with 293A cells; in assay [1]) were 350 nM and 100 to 1000 nM, respectively.

Take `CCOc1ccc2c(c1)sc1nc(-c3ccc(Cl)cc3)cn12` [IBT-46, 2-(4-chlorophenyl)-7-ethoxybenzo[d]imidazo[2,1-b]thiazole]: the IC50 in the assay with 293A cells was 560 nM; in assay [1], 100 to 1000 nM.

`COc1cccc2sc3nc(-c4ccc(Cl)cc4)cn3c12` [IBT-51, 2-(4-chlorophenyl)-5-methoxybenzo[d]imidazo[2,1-b]thiazole]: the IC50 in the assay on 293A cells is 7720 nM; in assay [1], > 1000 nM.

For `CNC(=O)CCCNS(=O)(=O)c1ccc2c(c1)sc1nc(-c3ccc(C(F)(F)F)cc3)cn12` [IBT-52, N-methyl-4-((2-(4-(trifluoromethyl)phenyl)benzo[d]imidazo[2,1-b]thiazole)-7-sulfonamido)butanamide], the IC50 was 420 nM in the assay with 293A cells and 100 to 1000 nM in assay [1].

In the case of `CC(C)(C)OC(=O)NCCOCCNC(=O)CCc1ccc2c(c1)sc1nc(-c3ccc(C(F)(F)F)cc3)cn12` [IBT-53, tert-butyl (2-(2-(3-(2-(4-(trifluoromethyl)phenyl)benzo[d]imidazo[2,1-b]thiazol-7-yl)propanamido)ethoxy)ethyl)carbamate], the IC50 in the assay on 293A cells was 4470 nM; in assay [1], > 1000 nM.

For the molecule `CCN(CC)C(=O)CCCS(=O)(=O)c1ccc2c(c1)sc1nc(-c3ccc(C(F)(F)F)cc3)cn12` [IBT-55, N,N-diethyl-4-((2-(4-(trifluoromethyl)phenyl)benzo[d]imidazo[2,1-b]thiazol-7-yl)sulfonyl)butanamide], the results for the IC50 (in the assay with 293A cells; in assay [1]) were 660 nM and 100 to 1000 nM, respectively.

On to `C#CCOc1cc(-c2cn3c(n2)sc2cc(S(C)(=O)=O)ccc23)ccc1Cl` [IBT-56, 2-(4-chloro-3-(prop-2-yn-1-yloxy)phenyl)-7-(methylsulfonyl)benzo[d]imidazo[2,1-b]thiazole], for which the IC50 was 560 nM with 293A cells and 100 to 1000 nM in assay [1].

Consider `C#CCNC(=O)CCc1ccc2c(c1)sc1nc(-c3ccc(C(F)(F)F)cc3)cn12` [IBT-57], for which the values for the IC50 (in the assay on 293A cells; in assay [1]) were 3800 nM and > 1000 nM, respectively.

Turning to `CC(C)(C)OC(=O)NCCCOc1cc(-c2cn3c(n2)sc2cc(S(C)(=O)=O)ccc23)ccc1Cl` [IBT-58, tert-butyl (3-(2-chloro-5-(7-(methylsulfonyl)benzo[d]imidazo[2,1-b]thiazol-2-yl)phenoxy)propyl)carbamate], the values for the IC50 (in the assay with 293A cells; in assay [1]) were 3200 nM and > 1000 nM, respectively.

Regarding `OCc1ccc2c(c1)sc1nc(-c3ccc(Cl)cc3)cn12` [IBT-59, (2-(4-chlorophenyl)benzo[d]imidazo[2,1-b]thiazol-7-yl)methanol], the IC50 in the assay with 293A cells was 410 nM; in assay [1], 100 to 1000 nM.

Consider `C#CCOCc1ccc2c(c1)sc1nc(-c3ccc(Cl)cc3)cn12` [IBT-60, 2-(4-chlorophenyl)-7-((prop-2-yn-1-yloxy)methyl)benzo[d]imidazo[2,1-b]thiazole 2,2,2-trifluoroacetate], for which the IC50 is 900 nM in the assay with 293A cells and 100 to 1000 nM in assay [1].

As to `C#CCCC1(CCNC(=O)CCc2ccc3c(c2)sc2nc(-c4ccc(C(F)(F)F)cc4)cn23)N=N1` [IBT-61, N-(2-(3-(but-3-yn-1-yl)-3H-diazirin-3-yl)ethyl)-3-(2-(4-(trifluoromethyl)phenyl)benzo[d]imidazo[2,1-b]thiazol-7-yl)propanamide], the IC50 in the assay on 293A cells was 4160 nM; in assay [1], > 1000 nM.

`C#CCCC1(CCOc2cc(-c3cn4c(n3)sc3cc(S(C)(=O)=O)ccc34)ccc2Cl)N=N1` [IBT-63, 2-(3-(2-(3-(but-3-yn-1-yl)-3H-diazirin-3-yl)ethoxy)-4-chlorophenyl)-7-(methylsulfonyl)benzo[d]imidazo[2,1-b]thiazole 2,2,2-trifluoroacetate]: the figures for the IC50 (in the assay with 293A cells; in assay [1]) were 350 nM and 100 to 1000 nM, respectively.

Take `CCOc1ccc(-c2cn3c(n2)sc2cc(S(C)(=O)=O)ccc23)cc1` [IBT-64, 2-(4-ethoxyphenyl)-7-(methylsulfonyl)benzo[d]imidazo[2,1-b]thiazole]: the figures for the IC50 (in the assay with 293A cells; in assay [1]) were 670 nM and 100 to 1000 nM, respectively.

Turning to `CC(C)(C)OC(=O)NCCCOc1ccc(-c2cn3c(n2)sc2cc(S(C)(=O)=O)ccc23)cc1` [IBT-66, tert-butyl (3-(4-(7-(methylsulfonyl)benzo[d]imidazo[2,1-b]thiazol-2-yl)phenoxy)propyl)carbamate], the figures for the IC50 (in the assay with 293A cells; in assay [1]) were 830 nM and 100 to 1000 nM, respectively.

As to `CCCc1ccc(-c2cn3c(n2)sc2cc(S(C)(=O)=O)ccc23)cc1` [IBT-67, 7-(methylsulfonyl)-2-(4-propylphenyl)benzo[d]imidazo[2,1-b]thiazole], the IC50 was 370 nM in the assay on 293A cells and 100 to 1000 nM in assay [1].

As for `Cc1ccc2c(c1)sc1nc(-c3ccc(C(F)(F)F)cc3)cn12` [IBT-68, 7-methyl-2-(4-(trifluoromethyl)phenyl)benzo[d]imidazo[2,1-b]thiazole], the IC50 in the assay on 293A cells is 100 nM; in assay [1] it was 10 to 100 nM.

As to `C#CCCC1(CCOc2cccc(-c3cn4c(n3)sc3cc(S(C)(=O)=O)ccc34)c2)N=N1` [IBT-70, 2-(3-(2-(3-(but-3-yn-1-yl)-3H-diazirin-3-yl)ethoxy)phenyl)-7-(methylsulfonyl)benzo[d]imidazo[2,1-b]thiazole 2,2,2-trifluoroacetate], the figures for the IC50 (in the assay on 293A cells; in assay [1]) were 430 nM and 100 to 1000 nM, respectively.
